Literature values, collected in EP2727592A1 (Kücükgüzel, Sükriye Güniz, priority 2012, dated 2014).

Tests used:
[1] = in vivo
[2] = not given; remark: listed apart in the source

## CC(=O)Nc1ccc(O)cc1 [PAR, 4-hydroxyacetanilide]
[1]
  eliminated without transformation: 5%
  turns into N-acetyl-p-benzoquinonimine (NAPQI) with oxidation: 5%
  turns into glucuronide and sulphate conjugate: 90%
Customary dose orally
  time to reach the highest amount of plasma concentration: 90 min
In vivo
  Elimination half life: 3.3 h
oral
  Oral bioavailability: 63 - 89%
[2]; adults
  dose leading to nausea, vomiting, stomach ache, then liver failure and acute liver necrosis: more than 10 g
[2]; children
  paediatric toxic dose: 200 mg/kg
[2]; taken in one go
  dose at which the fatality risk shall increase: over 20 g
